Test results from patent US20140011811A1, “MYOSIN BINDING PROTEIN-C FOR USE IN METHODS RELATING TO DIASTOLIC HEART FAILURE” (The United States Government as represented by the …, priority 2011, published 2014).

Assays:
[1] = system: myosin binding protein C (MyBP-C); test: Western immunoblotting of S-glutathionylation of MyBP-C in cardiac myofilaments from treated DOCA-salt and sham mice; type: in vivo, mouse; settings: chronic ranolazine diet (~1 g/day tablet with 5 mg ranolazine and 0.3 mg P450 inhibitor), postoperative day 11 to 18
Method: Chronic Administration of Ranolazine: A special diet contained 5 mg ranolazine, 0.3 mg P450 inhibitor, and 0.25 mg red food color was pressed into a 1-g nutritionally complete grain-based tablet (Harlan, Madison, Wis.). The control diet contained 0.3mg P450 inhibitor and 0.25 mg yellow food color pressed into the same type of 1-g tablets. DOCA-salt and sham mice consumed daily ˜1g of the special diet from postoperative day 11 to 18. Western blot analysis was used to detect for glutathionylated proteins. […] Using the protein concentration determined from an RC-DC (Bio-Rad) assay, 40 μg of total protein was applied to 1D 12% resolving SDS-PAGE gel and transferred onto a 0.2 μM Polyvinylidene fluoride (PVDF) membrane. […] Anti-glutathione mouse monoclonal primary antibody (Virogen, Watertown, Mass.) was used at 1:1000 dilution along with anti-mouse HRP-conjugated secondary antibody (Sigma) at 1:100,000 dilution to detect for S-glutathionylation.10 Optical density of the bands was measured with ImageQuant TL (GE Healthcare) and exported to Excel for further analysis. […] Using the protein concentration determined from an RC-DC (Bio-Rad) assay, 40 µg of total protein was applied to a 12% SDS-PAGE gel and transferred onto a 0.2 pm PVDF membrane. […] Optical density of the bands was measured with ImageQuant TL (GE Healthcare) and exported to Excel for further analysis. […]

MyBP-C = test: Pro-Q Diamond gel stain of phosphorylation of MyBP-C in myofibrils from treated DOCA-salt and sham mice; type: in vivo, mouse; settings: DOCA-salt or sham mice treated as in Examples 1 and 2
Method: DOCA-salt or sham mice were administered ranolazine or BH4 as essentially described in Examples 1 and 2, respectively. Pro-Q Diamond (Invitrogen) gel stain was used to detect changes in phosphorylation states of MyBP-C. Myofibrils were prepared from DOCA-salt and sham models of the mice hearts, and pellets were solubilized in a non-reducing 2× laemmli buffer (4% SDS, 20% glycerol, 0.004% bromophenol blue, and 0.125 M Tris HCl pH 6.8). 25 mM N-ethylmaleimide (NEM) was added to the standard rigor buffer with Triton X-100, the standard rigor wash buffer, and the 2× Laemmli buffer. An RC-DC assay (BioRad) was used to determine protein concentrations. Samples were diluted at 1:1 ratio in reducing sample buffer (8 M urea, 2 M thiourea, 0.05 M tris pH 6.8, 75 mM DTT, 3% SDS, and 0.05% bromophenol blue and approximately 10 μg of protein was loaded on to a 12% resolving 1D SDS-PAGE gel. The gels were stained and destained with Pro-Q Diamond according to the manufacturer's recommendations prior to the imaging with a Typhoon 9410 scanner (GE Healthcare). Coomassie R-250 staining was used to normalize protein load to both actin and the whole lane. Optical density of the proteins was determined using ImageQuant TL (GE Healthcare) software and results were exported to Excel for further analysis.

DOCA-salt mice = test: Echocardiography (mitral pulse wave Doppler flow and tissue Doppler imaging) in DOCA-salt mouse model of diastolic dysfunction; type: in vivo; settings: DOCA-salt+BH4 mice, BH4 supplemental diet 5 mg BH4/day, postoperative day 11 to 18, echocardiography day 18
Method: Previously, we have shown that the DOCA-salt mouse model leads to mild hypertension, NOS uncoupling, myocardial oxidative stress, and diastolic dysfunction. A gradual and mild elevation in blood pressure was induced by unilateral nephrectomy, subcutaneous implantation of a controlled release deoxycorticosterone acetate (DOCA) pellet (0.7 mg/d; Innovative Research of America, Sarasota, Fla.), and substituting drinking water with 1.05% saline. Control animals underwent a sham operation, had placebo pellet implantation, and received water without salt.
Mice were divided into two groups which received a control diet (sham N=7; DOCA-salt N=10) and two groups which received a BH4 supplemental diet of 5 mg BH4/day (Research Diets Inc, New Brunswick, N.J.; sham+BH4 N=8; DOCA-salt+BH4 N=8). The supplemental diet began on day 11 after surgery, and continued until day 18, when the mice were analyzed and sacrificed.
Ten days after surgery, we employed echocardiography to characterize the diastolic dysfunction. […] The images for each mouse were recorded for at least 5 s (30-40 cardiac cycles) from which three to five representative cycles with the highest quality imaging were selected. Percent fractional shortenin (% FS) were calculated as 100×(LVEDd)-(LVESd)/(LVEDd) and percent LV ejection fraction (%EF) was calculated as 100×[(7/2.4+LVEDd)×LEDd^3]−[(7/2.4+LVESd)×LVESd^3]/[(7/2.4+LVEDd)×LEDd^3]. […]

## COc1ccccc1OCC(O)CN1CCN(CC(=O)Nc2c(C)cccc2C)CC1 (stereo not shown) [ranolazine]
[1]
  MyBP-C glutathionylation: regressed level
MyBP-C
  phosphorylation levels of MyBP-C: did not affect

## C[C@H](O)[C@H](O)[C@H]1CNc2nc(N)[nH]c(=O)c2N1 [BH4, tetrahydrobiopterin]
DOCA-salt mice; vs. DOCA-salt 0.74±0.05, P<0.001
  ratio of E′A′ (mitral tissue Doppler E′/A′): 1.12±1.10
DOCA-salt mice; vs. DOCA-salt 43.7±2.7, P<0.01
  E/E′ ratio, a measure of left atrial pressure: 34.5±2.2
